From article PMC5321639, “Design and pharmacodynamics of recombinant NZ2114 histidine mutants with improved activity against methicillin-resistant Staphylococcus aureus” (AMB Express, 2017)
Values after ≈ are worked out from the molar mass of the structure shown. Values joined by “and” are separate entries in the source; they are usually repeats but may differ in a detail not shown here. Identical values can stand only once. Where a SMILES comes first, the peptide text is derived from it. Bridges are numbered along the chain shown (N, C = ends).

Assays:
[1] = test system: S. aureus ATCC25923; experiment: MIC assay; type: cell-based, Staphylococcus aureus; conditions: MHB, 1 × 10^5 CFU/ml, 37 °C, 18–24 h, no visible growth, triplicate
Experimental: (§1) The peptide solutions were diluted twofold with the range of final concentrations were 0.015–32 µg/ml (0.003–7.273 µM) for purified H1, H2, H3, H6, and H8. The test strains were grown in MHB medium at 37 °C to an OD600 of 0.4 and diluted to 1 × 10^5 CFU/ml. The 10 µl peptide and 90 µl cell suspension were added into each well. All assays were performed in triplicate. The antimicrobial activity of NZ2114 and vancomycin were tested as positive controls. The plates were incubated at 37 °C for 18–24 h. MIC was defined as the lowest peptide concentration of ones at which there was no visible growth (Tian et al. [2009]).

[2] = test system: S. aureus ATCC6538; experiment: MIC assay; type: cell-based, Staphylococcus aureus; conditions: MHB, 1 × 10^5 CFU/ml, 37 °C, 18–24 h, no visible growth, triplicate
Experimental: as §1

[3] = test system: S. pneumoniae CVCC2350; experiment: MIC assay; type: cell-based, Streptococcus pneumoniae; conditions: MHB, 1 × 10^5 CFU/ml, 37 °C, 18–24 h, triplicate
Experimental: as §1

[4] = test system: S. pneumoniae CVCC1.8722; experiment: MIC assay; type: cell-based, Streptococcus pneumoniae; conditions: MHB, 1 × 10^5 CFU/ml, 37 °C, 18–24 h, triplicate
Experimental: as §1

[5] = test system: S. enteritidis CMCC50336; experiment: MIC assay; type: cell-based, Salmonella enteritidis; conditions: MHB, 1 × 10^5 CFU/ml, 37 °C, 18–24 h, triplicate
Experimental: as §1

[6] = test system: S. aureus ATCC43300; experiment: Postantibiotic effect (PAE); type: cell-based, Staphylococcus aureus; conditions: 2 h exposure at 37 °C, 1 × 10^8 CFU/ml, drug removed by 1:10^3 dilution, mean ± SD, n = 3
Experimental: After 2 h, the drug was removed by diluting 1:10^3 into the MHB and incubated at 37 °C, 250 rpm. The sample was taken to plate counting every 1 h until the bacterial cultures become turbid. The PAE was calculated by the following formula: PAE = T − C, where T is the time needed for the count of CFU in the test culture to increase 1 log10 (10-fold) above the 0 h and C is the time needed for the count of CFU in the untreated control culture to increase 1 log10 above the 0 h (Giguère et al. [2012]).

[7] = test system: S. aureus ATCC43300; experiment: Effect of pH on activity (MIC); type: cell-based, Staphylococcus aureus; conditions: then MIC assay
Experimental: as §1
(§2) The effect of pH, temperature, NaCl concentration and proteinase on the activity of peptides was evaluated. Peptides were diluted twofold, then adjusted to a pH range from 2.0 to 10.0 and incubated at 37 °C for 4 h. The thermal stability of purified peptides was determined after 1-h incubation of peptides at 4, 20, 40, 60, 80 and 100 °C in deionized water, respectively. Aliquots of peptides were incubated in various proteinases solutions [pepsin (pH 2.0), trypsin (pH 8.0), proteinase K (pH 7.0)] at a ratio of 1:10, w/w (proteinase: peptide) at 37 °C for 3 h. For the ion stability, peptides were incubated in 50, 100, 200, 300, 400, 500 mM sodium chloride solutions, respectively. Other methods and conditions were prepared as the MIC assay described above (Li et al. [2015]; Qu et al. [2016]).

[8] = test system: S. aureus ATCC43300 (MRSA); experiment: Time-kill curve assay; type: cell-based, Staphylococcus aureus; conditions: for time for bacterial counts to decrease to 2 log10 CFU/ml (a 99.9% reduction): start 1 × 10^5 CFU/ml, 37 °C, triplicate
Experimental: Bacterial culture (S. aureus ATCC43300) was diluted to 1 × 10^5 CFU/ml and H1, H2, and H3 were added. […] The mixture was cultivated at 250 rpm, 37 °C. The 100-µl samples were taken from each flask at 0, 2, 4, 6, 8, 12 and 24 h of incubation, and serial dilutions of samples were plated to count visible colonies. Vancomycin was tested in the same way as a positive control and the culture without antimicrobial agent as a negative control (Xiong et al. [2011]). All experiments were performed in triplicate.

[9] = test system: E. coli CICC21530; experiment: MIC assay; type: cell-based, Escherichia coli; conditions: MHB, 1 × 10^5 CFU/ml, 37 °C, 18–24 h, triplicate
Experimental: as §1

[10] = test system: E. coli CVCC195; experiment: MIC assay; type: cell-based, Escherichia coli; conditions: MHB, 1 × 10^5 CFU/ml, 37 °C, 18–24 h, triplicate
Experimental: as §1

[11] = test system: S. suis CVCC606; experiment: MIC assay; type: cell-based, Streptococcus suis; conditions: MHB, 1 × 10^5 CFU/ml, 37 °C, 18–24 h, triplicate
Experimental: as §1

[12] = test system: S. suis CVCC3928; experiment: MIC assay; type: cell-based, Streptococcus suis; conditions: MHB, 1 × 10^5 CFU/ml, 37 °C, 18–24 h, triplicate
Experimental: as §1

[13] = test system: S. suis CVCC3309; experiment: MIC assay; type: cell-based, Streptococcus suis; conditions: MHB, 1 × 10^5 CFU/ml, 37 °C, 18–24 h, triplicate
Experimental: as §1

[14] = test system: S. aureus ATCC43300; experiment: Effect of NaCl concentration on activity (MIC); type: cell-based, Staphylococcus aureus
Experimental: as §1, §2

[15] = test system: S. pullorum CVCC1789; experiment: MIC assay; type: cell-based; conditions: MHB, 1 × 10^5 CFU/ml, 37 °C, 18–24 h, triplicate
Experimental: as §1

[16] = test system: S. typhimurium ATCC14028; experiment: MIC assay; type: cell-based; conditions: MHB, 1 × 10^5 CFU/ml, 37 °C, 18–24 h, triplicate
Experimental: as §1

[17] = test system: S. choleraesuis CVCC503; experiment: MIC assay; type: cell-based; conditions: MHB, 1 × 10^5 CFU/ml, 37 °C, 18–24 h, triplicate
Experimental: as §1

[18] = test system: S. aureus ATCC43300; experiment: Effect of proteinases on activity (MIC); type: cell-based, Staphylococcus aureus; conditions: trypsin (pH 8.0), 1:10 w/w proteinase:peptide, 37 °C for 3 h, then MIC assay
Experimental: as §1, §2

[19] = test system: S. aureus ATCC43300; experiment: Effect of temperature on activity (MIC); type: cell-based, Staphylococcus aureus; conditions: then MIC assay
Experimental: as §1, §2

CC[C@H](C)[C@@H]1NC(=O)[C@H](CO)NC(=O)[C@H](CCCCN)NC(=O)[C@@H]2CSSC[C@@H](C(=O)N[C@@H](Cc3ccc(O)cc3)C(=O)O)NC(=O)[C@H](CCCCN)NC(=O)[C@@H]3CSSC[C@H](NC(=O)[C@H](CCCNC(=N)N)NC(=O)[C@H](CC(C)C)NC(=O)[C@H](CC(=O)O)NC(=O)[C@H](CC(=O)O)NC(=O)[C@H](CCC(=O)O)NC(=O)[C@H](CC(N)=O)NC(=O)[C@H](Cc4c[nH]c5ccccc45)NC(=O)[C@@H]4CCCN4C(=O)CNC(=O)[C@H](CC(N)=O)NC(=O)[C@@H](NC(=O)CNC(=O)[C@H](Cc4ccccc4)NC(=O)CN)CSSC[C@H](NC(=O)[C@H](Cc4ccc(O)cc4)NC(=O)CNC(=O)CNC(=O)[C@H](CCCCN)NC(=O)[C@H](Cc4ccc(O)cc4)NC(=O)CNC(=O)[C@H](CCCCN)NC1=O)C(=O)N[C@@H](C)C(=O)N[C@@H](CCCCN)C(=O)NCC(=O)NCC(=O)N[C@@H](Cc1ccccc1)C(=O)N[C@@H](C(C)C)C(=O)N3)C(=O)N[C@@H](CCCNC(=N)N)C(=O)N[C@@H](CC(N)=O)C(=O)N[C@@H](Cc1c[nH]cn1)C(=O)N2 [H2] (H-GFGCNGPWNEDDLRCRNHCKSIKGYKGGYCAKGGFVCKCY-OH; disulfide 4-30, 15-37, 19-39 (inferred); N-terminus and C-terminus assumed)
MIC [1]: 0.028 µM (≈ 0.124 µg/mL)
MIC [2]: 0.057 µM (≈ 0.253 µg/mL)
MIC [3]: 0.227 µM (≈ 1.01 µg/mL)
MIC [4]: 0.227 µM (≈ 1.01 µg/mL)
MIC [5]: >7.273 µM
PAE ([6]; 1× MIC): 0.63 h and 0.63 ± 0.13 h
PAE ([6]; 2× MIC): 1.75 ± 0.04 h
MIC after incubation at pH2 ([7]; pH 2, 37 °C for 4 h): 0.114 μM
MIC after incubation at pH4 ([7]; pH 4, 37 °C for 4 h): 0.114 μM
MIC after incubation at pH6 ([7]; pH 6, 37 °C for 4 h): 0.114 μM
MIC after incubation at pH8 ([7]; pH 8, 37 °C for 4 h): 0.114 μM
MIC after incubation at pH10 ([7]; pH 10, 37 °C for 4 h): 0.114 μM
time for bacterial counts to decrease to 2 log10 CFU/ml (a 99.9% reduction) ([8]; 1× MIC): 1.5 h
regrowth of pathogens up to 24 h ([8]; 1×, 2× and 4× MIC, maintained to 24 h): without regrowth
time for bacterial counts to decrease to 2 log10 CFU/ml (a 99.9% reduction) ([8]; 2× MIC): 1 h
time for bacterial counts to decrease to 2 log10 CFU/ml (a 99.9% reduction) ([8]; 4× MIC): 0.5 h
MIC [9]: >7.273 µM
MIC [10]: >7.273 µM
MIC [11]: 0.028 µM (≈ 0.124 µg/mL)
MIC [12]: 0.014 µM (≈ 0.062 µg/mL)
MIC [13]: 0.028 µM (≈ 0.124 µg/mL)
MIC in 50 mM NaCl ([14]; incubated in 50 mM sodium chloride solution): 0.114 µM (≈ 0.505 µg/mL)
MIC in 100 mM NaCl ([14]; incubated in 100 mM sodium chloride solution): 0.114 µM (≈ 0.505 µg/mL)
MIC in 300 mM NaCl ([14]; incubated in 300 mM sodium chloride solution): 0.227 µM (≈ 1.01 µg/mL)
MIC in 400 mM NaCl ([14]; incubated in 400 mM sodium chloride solution): 0.227 µM (≈ 1.01 µg/mL)
MIC in 500 mM NaCl ([14]; incubated in 500 mM sodium chloride solution): 0.227 µM (≈ 1.01 µg/mL)
MIC [15]: >7.273 µM
MIC [16]: >7.273 µM
MIC [17]: >7.273 µM
MIC after Trypsin [18]: 0.454 µM (≈ 2.01 µg/mL)
MIC after incubation at 4 °C ([19]; 1 h at 4 °C in deionized water): 0.114 µM (≈ 0.505 µg/mL)
MIC after incubation at 20 °C ([19]; 1 h at 20 °C in deionized water): 0.114 µM (≈ 0.505 µg/mL)
MIC after incubation at 40 °C ([19]; 1 h at 40 °C in deionized water): 0.114 µM (≈ 0.505 µg/mL)
MIC after incubation at 60 °C ([19]; 1 h at 60 °C in deionized water): 0.114 µM (≈ 0.505 µg/mL)
